Experimental data reported in patent US12485134B2, “Use of nicotinamide riboside, nicotinic acid riboside, reduced nicotinyl riboside compounds, and nicotinyl riboside compound derivatives in formulations” (ChromaDex Inc., priority 2019, dated 2025).

Test system: milk concentrate proteins
Assay: WaterLOGSY NMR binding of NR-Cl
Conditions: pH 7.0
Experimental: WaterLOGSY is a sensitive ligand-observed NMR experiment designed for the screening of protein ligands from a mixture of potential binders. […] The experiment relies on fast dissociation of bound ligands to carry into the free state magnetisation originating from irradiated water that has been transmitted via the protein complex.
NMR samples for WaterLOGSY were prepared as follows. Ligand-detect WaterLOGSY experiments were carried at 600 MHz with 5-mm cryoprobe and using 5-mm NMR tubes. Each NMR sample for WaterLOGSY contained ˜0.05 mg (˜0.35 mM), using unlabeled ligand NR-Cl (“NR”), in a NMR buffer containing ˜0.5 mL 90% H2O/10% ^2H2O at pH 7.0 with or without the milk and soy protein mix (compared to the WaterLOGSY of NR as a negative control). Protein was added as a powder with a minimal 15 to 50 μM concentration. Typically, the final NMR sample of protein-compound mixtures had >20-fold higher compound concentration of ligand compared to that of the protein. Denatured samples were prepared by simply heating (80° C. for 15-20 mins) the aqueous (5-10% ^2H2O) protein mixture (in absence of NR).
The NR only WaterLOGSY spectrum (FIG. 23) was the negative control to screen for any potential binding of NR-Cl to milk concentrate and soy isolate proteins as shown herein and discussed below.

Question: Which results are given for `NC(=O)c1ccc[n+]([C@@H]2O[C@H](CO)[C@@H](O)[C@H]2O)c1.[Cl-]` [NR-Cl, nicotinamide riboside chloride]?
Answer: WaterLOGSY binding (denatured milk concentrate (80° C. for 15-20 mins)): decreased binding; WaterLOGSY binding (milk concentrate): evidence of positive binding
